{"source": "patent US20130190263A1", "about": "(LABORATORIO DE DIAGNOSTICO GAM, S.A., priority 2010, published 2013)", "key": {"[1]": {"test_system": "ISA virus", "assay": "Inhibition assay of the replicative cycle of ISAV in SHK-1 cells (real-time RT-PCR of supernatant)", "type": "cell-based"}, "[2]": {"test_system": "ISA virus", "assay": "Example 1: necropsies analysis of infected treated fish", "type": "in vivo, Salmo salar", "conditions": "infected fish of tanks T1 and T2; FIGS. 14 and 15", "source_text": "The necropsy of the fish in the assay of controlled environment was made through external and internal clinical analysis, with registration of morphometric parameters, description and registration of pathological features (necropsy itself), sampling of internal organs (heart, kidney, spleen and gills) in ethanol and RNA later, with counter samples (i.e. duplication of the samples of the organs same), along with the sample of muscle locket with skin to be used afterwards in analysis of deficiency (presence of the Antiviral in the muscle).\nThe fish were subjected to necropsy process mostly within 24 hours post sampling.\nAt the end of the assay all fish were euthanized and necropsied."}, "[3]": {"test_system": "ISA virus", "assay": "Example 1: hematocrit of ISAV-infected treated fish", "type": "in vivo, Salmo salar", "conditions": "live fish"}, "[4]": {"assay": "Degradation when autoclaved at 121° C., 15 psi, 25% relative humidity", "type": "physicochemical"}, "[5]": {"test_system": "SHK-1 cells", "conditions": "Atlantic salmon, 3 days"}, "[6]": {"conditions": "48 hours"}, "[7]": {"test_system": "VHSV virus (Viral Hemorrhagic Septicemia Virus)", "conditions": "EPC cells, cited from earlier work"}, "[8]": {"test_system": "IPNV", "conditions": "solution in the tank, exposure once during two hours; cited from earlier work"}, "[9]": {"test_system": "RNA viruses", "conditions": "in general, in vitro; read-out: EC50 values (effective concentration 50%); cited from earlier work"}, "[10]": {"test_system": "cell cultures", "conditions": "cited from earlier work"}, "[11]": {"test_system": "SHK-1 cells", "assay": "Cytotoxicity: cell viability of SHK-1 cells (propidium iodide cytometry)", "conditions": "relative to effective concentration"}, "[12]": {"assay": "Example 1: toxicity in healthy uninfected fish given the highest dose (tank C2)"}, "[13]": {"test_system": "ISA virus", "assay": "Example 1: determination of viral load in heart samples (real-time RT-PCR, TCID50)", "conditions": "for viral load in infected fish (intraperitoneal): FIG. 9"}}, "note": "pEC50: −log10 of the molar value.", "data": [{"molecule": "CCOC(=O)C1=C[C@@H](OC(CC)CC)[C@H](NC(C)=O)[C@@H](N)C1", "note": "[oseltamivir]", "values": [{"measurement": "inhibition of the replication of ISA virus", "setting": "[1]; concentrations as high as 300 μg/mL, SHK-1 cells, 3 days post-infection, FIG. 1", "value": "no more than 60%"}]}, {"molecule": "O=C(O)C1=C[C@@H](O)[C@@H](O)[C@H](O)C1", "note": "[shikimic acid]", "values": [{"measurement": "viral replication inhibition", "setting": "[1]; up to concentrations of 300 μg/ml, FIG. 2", "value": "no viral replication inhibition"}]}, {"molecule": "NC(=O)c1ncn([C@@H]2O[C@H](CO)[C@@H](O)[C@H]2O)n1", "note": "[ribavirin, 1-beta-D-ribofuranosyl-1H-1,2,4-triazole-3-carboxamide]", "values": [{"measurement": "EC50", "setting": "[1]; 72 h, read-out: concentration which inhibits 50% of ISA virus replication (EC50)", "value": "~0.4", "unit": "µg/mL"}, {"measurement": "necropsy findings", "setting": "[2]", "value": "mild inflammatory signs"}, {"measurement": "hematocrit", "setting": "[3]; tank T1, infected, dose of 800 μg/mL", "value": "~45", "unit": "%"}, {"measurement": "hematocrit", "setting": "[3]; tank T2, infected, dose of 400 μg/mL", "value": "~45", "unit": "%"}, {"measurement": "% Antiviral", "setting": "[4]; 5 minutes in autoclave", "value": 97.2, "unit": "%"}, {"measurement": "% Antiviral", "setting": "[4]; 10 minutes in autoclave", "value": 91.9, "unit": "%"}, {"measurement": "% Antiviral", "setting": "[4]; 20 minutes drying + 30 minutes in autoclave", "value": 99.5, "unit": "%"}, {"measurement": "% Antiviral", "setting": "[4]; 30 minutes in autoclave", "value": 90.3, "unit": "%"}, {"measurement": "concentration that produces 50% of cell toxicity (CC50)", "setting": "[5]", "value": "> 400000", "unit": "µg/mL"}, {"measurement": "stability of the aqueous solution", "setting": "[6]", "value": "≤ 48", "unit": "h"}, {"measurement": "RNA inhibition", "setting": "[7]; 25 μg/ml added at 0 hours post infection, at 10 hours post infection", "value": 99.8, "unit": "%"}, {"measurement": "inhibition of the virus", "setting": "[7]; concentrations of 5, 10 and 25 μg/ml", "value": "strong inhibition"}, {"measurement": "decreased rate of dead fish", "setting": "[8]", "value": "about 5%"}, {"measurement": "pEC50", "setting": "[9]", "value": "≤ 6.00"}, {"measurement": "CC50", "setting": "[10]", "value": 100, "unit": "µg/mL"}, {"measurement": "no cytotoxicity in concentrations times higher than the actual", "setting": "[11]", "value": "up to 10^7 times"}, {"measurement": "signs of anemia", "setting": "[12]; healthy fish receiving a high dose (C2)", "value": "no signs of developing anemia"}, {"measurement": "hematocrit", "setting": "[12]; tank C2, healthy, dose of 1600 μg/mL", "value": 54, "unit": "%"}, {"measurement": "viral load in dead fish", "setting": "[13]; highest dose (T1) compared with T2 and C3, FIG. 8", "value": "significantly lower"}, {"measurement": "viral load in infected fish (intraperitoneal)", "setting": "[13]; highest dose (T1)", "value": "lower"}, {"measurement": "viral load in infected fish (intraperitoneal)", "setting": "[13]; lowest dose (T2) versus untreated (C3)", "value": "practically the same"}, {"measurement": "average viral load (total)", "setting": "[13]; tanks T1 and T2 versus C3, FIG. 6", "value": "smaller than the uninfected fish"}]}]}
